Measurements as given in patent publication US12365692B2, “6-hydroxy-8-oxatricyclo[3.2.1.02,4]octane-2-carboxamide derivatives for inducing chondrogenesis for treating joint damage” (NOVARTIS AG, priority 2018, dated 2025).

System: ALP in NHAC (normal human articular chondrocytes)
Experiment: Alkaline Phosphatase (ALP) activity assay: ALP staining and quantitation in NHACs (prevention of chondrocyte hypertrophy)
Format: cell-based
Conditions: Chondrocyte, 288 h, human IL-1 beta 10 ng/mL, 12 days; for IC50: Fast Blue RR staining, high content imaging; for Emax: read-out: ALP in NHAC (% Efficacy)
Summary of the method: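 NHACs were plated with test compound in DMEM containing 10% FBS, and human IL-1 beta was added 5 h later at 10 ng/mL final. Cultures were kept 12 days at 37° C, 5% CO2. Cells were then fixed, ALP-stained with Fast Blue RR/Naphthol AS-MX, and hypertrophic cells were imaged and quantified by high-content imaging.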

| Compound | IC50 | Emax |
| --- | --- | --- |
| Cn1cc([C@@]23C[C@]2(C(=O)Nc2cc(Cl)cc(C(F)(F)F)c2)[C@H]2C[C@H](O)[C@@H]3O2)c(C(F)(F)F)n1 (racemic) [Example 59, rac-(1R,2R,4S,5R,6S)-N-(3-chloro-5-(trifluoromethyl)phenyl)-6-hydroxy-4-(1-methyl-3-(trifluoromethyl)-1H-pyrazol-4-yl)-8-oxatricyclo[3.2.1.02,4]octane-2-carboxamide] | > 30 µM | 35% |
| COc1ccc(NC(=O)[C@]23C[C@@]2(c2cn(C)nc2C(F)(F)F)[C@H]2O[C@@H]3C[C@@H]2O)cc1C(F)(F)F (racemic) [Example 60, rac-(1R,2R,4S,5R,6S)-6-hydroxy-N-(4-methoxy-3-(trifluoromethyl)phenyl)-4-(1-methyl-3-(trifluoromethyl)-1H-pyrazol-4-yl)-8-oxatricyclo[3.2.1.02,4]octane-2-carboxamide] | > 30 µM | 27% |
| COc1cc(NC(=O)[C@]23C[C@@]2(c2cn(C)nc2C(F)(F)F)[C@H]2O[C@@H]3C[C@@H]2O)cc(C(F)(F)F)c1 (racemic) [Example 61, rac-(1R,2R,4S,5R,6S)-6-hydroxy-N-(3-methoxy-5-(trifluoromethyl)phenyl)-4-(1-methyl-3-(trifluoromethyl)-1H-pyrazol-4-yl)-8-oxatricyclo[3.2.1.02,4]octane-2-carboxamide] | > 30 µM | 29% |
| COc1ccc(C(F)(F)F)cc1NC(=O)[C@]12C[C@@]1(c1cn(C)nc1C(F)(F)F)[C@H]1O[C@@H]2C[C@@H]1O (racemic) [Example 62, rac-(1R,2R,4S,5R,6S)-6-hydroxy-N-(2-methoxy-5-(trifluoromethyl)phenyl)-4-(1-methyl-3-(trifluoromethyl)-1H-pyrazol-4-yl)-8-oxatricyclo[3.2.1.02,4]octane-2-carboxamide] | > 30 µM | 26% |
| Cn1cc([C@@]23C[C@]2(C(=O)Nc2cc(C(F)(F)F)cc(C(F)(F)F)c2)[C@H]2C[C@H](O)[C@@H]3O2)c(C(F)(F)F)n1 (racemic) [Example 63, rac-(1R,2R,4S,5R,6S)—N-(3,5-bis(trifluoromethyl)phenyl)-6-hydroxy-4-(1-methyl-3-(trifluoromethyl)-1H-pyrazol-4-yl)-8-oxatricyclo[3.2.1.02,4]octane-2-carboxamide] | 29 µM | 56% |
| Cn1cc([C@@]23C[C@]2(C(=O)Nc2ccc(N4CCOCC4)c(C(F)(F)F)c2)[C@H]2C[C@H](O)[C@@H]3O2)c(C(F)(F)F)n1 (racemic) [Example 64, rac-(1R,2R,4S,5R,6S)-6-hydroxy-4-(1-methyl-3-(trifluoromethyl)-1H-pyrazol-4-yl)-N-(4-morpholino-3-(trifluoromethyl)phenyl)-8-oxatricyclo[3.2.1.02,4]octane-2-carboxamide] | > 30 µM | 28% |
| CCOc1ccc(NC(=O)[C@]23C[C@@]2(c2cn(C)nc2C(F)(F)F)[C@H]2O[C@@H]3C[C@@H]2O)cc1C(F)(F)F (racemic) [Example 65, rac-(1R,2R,4S,5R,6S)—N-(4-ethoxy-3-(trifluoromethyl)phenyl)-6-hydroxy-4-(1-methyl-3-(trifluoromethyl)-1H-pyrazol-4-yl)-8-oxatricyclo[3.2.1.02,4]octane-2-carboxamide] | 12 µM | 84% |
| O=C(Nc1cccc(C(F)(F)F)c1)[C@]12C[C@@]1(c1ccnc(C(F)(F)F)c1)[C@H]1O[C@@H]2C[C@@H]1O (racemic) [Example 66, rac-(1R,2R,4S,5R,6S)-6-hydroxy-N-(3-(trifluoromethyl)phenyl)-4-(2-(trifluoromethyl)pyridin-4-yl)-8-oxatricyclo[3.2.1.02,4]octane-2-carboxamide] | 24 µM | 62% |
| O=C(Nc1cccc(C(F)(F)F)c1)[C@]12C[C@@]1(c1cccc(C(F)(F)F)c1)[C@H]1O[C@@H]2C[C@@H]1O (racemic) [Example 67, rac-(1R,2R,4S,5R,6S)-6-hydroxy-N,4-bis(3-(trifluoromethyl)phenyl)-8-oxatricyclo[3.2.1.02,4]octane-2-carboxamide] | 27 µM | 54% |
| Cn1cc([C@@]23C[C@]2(C(=O)Nc2ccc(C#N)c(C(F)(F)F)c2)[C@H]2C[C@H](O)[C@@H]3O2)c(C(F)(F)F)n1 (racemic) [Example 68, rac-(1R,2R,4S,5R,6S)—N-(4-cyano-3-(trifluoromethyl)phenyl)-6-hydroxy-4-(1-methyl-3-(trifluoromethyl)-1H-pyrazol-4-yl)-8-oxatricyclo[3.2.1.02,4]octane-2-carboxamide] | > 30 µM | 50% |
| Cn1cc([C@@]23C[C@]2(C(=O)Nc2cc(C(F)(F)F)ccc2C#N)[C@H]2C[C@H](O)[C@@H]3O2)c(C(F)(F)F)n1 (racemic) [Example 69, rac-(1R,2R,4S,5R,6S)—N-(2-cyano-5-(trifluoromethyl)phenyl)-6-hydroxy-4-(1-methyl-3-(trifluoromethyl)-1H-pyrazol-4-yl)-8-oxatricyclo[3.2.1.02,4]octane-2-carboxamide] | 1.8 µM | 88% |
| COc1cc([C@@]23C[C@]2(C(=O)Nc2ccc(Cl)c(C(F)(F)F)c2)[C@H]2C[C@H](O)[C@@H]3O2)ccn1 (racemic) [Example 70, rac-(1R,2R,4S,5R,6S)—N-(4-chloro-3-(trifluoromethyl)phenyl)-6-hydroxy-4-(2-methoxypyridin-4-yl)-8-oxatricyclo[3.2.1.02,4]octane-2-carboxamide] | > 30 µM | 39% |
| COc1cc([C@@]23C[C@]2(C(=O)Nc2cc(Cl)cc(C(F)(F)F)c2)[C@H]2C[C@H](O)[C@@H]3O2)ccn1 (racemic) [Example 71, rac-(1R,2R,4S,5R,6S)—N-(3-chloro-5-(trifluoromethyl)phenyl)-6-hydroxy-4-(2-methoxypyridin-4-yl)-8-oxatricyclo[3.2.1.02,4]octane-2-carboxamide] | > 30 µM | 9% |
| COc1cc([C@@]23C[C@]2(C(=O)Nc2cc(C#N)cc(C(F)(F)F)c2)[C@H]2C[C@H](O)[C@@H]3O2)ccn1 (racemic) [Example 72, rac-(1R,2R,4S,5R,6S)—N-(3-cyano-5-(trifluoromethyl)phenyl)-6-hydroxy-4-(2-methoxypyridin-4-yl)-8-oxatricyclo[3.2.1.02,4]octane-2-carboxamide] | > 30 µM | 37% |
| COc1cc([C@@]23C[C@]2(C(=O)Nc2cc(F)cc(C(F)(F)F)c2)[C@H]2C[C@H](O)[C@@H]3O2)ccn1 (racemic) [Example 73, rac-(1R,2R,4S,5R,6S)—N-(3-fluoro-5-(trifluoromethyl)phenyl)-6-hydroxy-4-(2-methoxypyridin-4-yl)-8-oxatricyclo[3.2.1.02,4]octane-2-carboxamide] | > 30 µM | 49% |
| COc1cc([C@@]23C[C@]2(C(=O)Nc2ccc(C(F)(F)F)c(Cl)c2)[C@H]2C[C@H](O)[C@@H]3O2)ccn1 (racemic) [Example 74, rac-(1R,2R,4S,5R,6S)—N-(3-chloro-4-(trifluoromethyl)phenyl)-6-hydroxy-4-(2-methoxypyridin-4-yl)-8-oxatricyclo[3.2.1.02,4]octane-2-carboxamide] | 3.4 µM | 77% |
| COc1cc([C@@]23C[C@]2(C(=O)Nc2ccc(C(F)(F)F)c(F)c2)[C@H]2C[C@H](O)[C@@H]3O2)ccn1 (racemic) [Example 75, rac-(1R,2R,4S,5R,6S)—N-(3-fluoro-4-(trifluoromethyl)phenyl)-6-hydroxy-4-(2-methoxypyridin-4-yl)-8-oxatricyclo[3.2.1.02,4]octane-2-carboxamide] | > 30 µM | 26% |
| COc1cc([C@@]23C[C@]2(C(=O)Nc2ccc(C(F)(F)F)cc2)[C@H]2C[C@H](O)[C@@H]3O2)ccn1 (racemic) [Example 76, rac-(1R,2R,4S,5R,6S)-6-hydroxy-4-(2-methoxypyridin-4-yl)-N-(4-(trifluoromethyl)phenyl)-8-oxatricyclo[3.2.1.02,4]octane-2-carboxamide] | 15 µM | 57% |
| N#Cc1cc(NC(=O)[C@]23C[C@@]2(c2ccnc(F)c2)[C@H]2O[C@@H]3C[C@@H]2O)cc(C(F)(F)F)c1 (racemic) [Example 77, rac-(1R,2R,4S,5R,6S)—N-(3-cyano-5-(trifluoromethyl)phenyl)-4-(2-fluoropyridin-4-yl)-6-hydroxy-8-oxatricyclo[3.2.1.02,4]octane-2-carboxamide] | > 30 µM | 29% |
| N#Cc1ccc(C(F)(F)F)cc1NC(=O)[C@]12C[C@@]1(c1ccnc(F)c1)[C@H]1O[C@@H]2C[C@@H]1O (racemic) [Example 78, rac-(1R,2R,4S,5R,6S)—N-(2-cyano-5-(trifluoromethyl)phenyl)-4-(2-fluoropyridin-4-yl)-6-hydroxy-8-oxatricyclo[3.2.1.02,4]octane-2-carboxamide] | > 30 µM | 40% |
| N#Cc1ccc(NC(=O)[C@]23C[C@@]2(c2cccc(C(F)(F)F)c2)[C@H]2O[C@@H]3C[C@@H]2O)cc1C(F)(F)F (racemic) [Example 79, rac-(1R,2R,4S,5R,6S)—N-(4-cyano-3-(trifluoromethyl)phenyl)-6-hydroxy-4-(3-(trifluoromethyl)phenyl)-8-oxatricyclo[3.2.1.02,4]octane-2-carboxamide] | 9.9 µM | 78% |
| N#Cc1ccc(C(F)(F)F)cc1NC(=O)[C@]12C[C@@]1(c1cccc(C(F)(F)F)c1)[C@H]1O[C@@H]2C[C@@H]1O (racemic) [Example 80, rac-(1R,2R,4S,5R,6S)—N-(2-cyano-5-(trifluoromethyl)phenyl)-6-hydroxy-4-(3-(trifluoromethyl)phenyl)-8-oxatricyclo[3.2.1.02,4]octane-2-carboxamide] | 2.2 µM | 76% |
